The values below come from publication PMC4706877, “Antibacterial and Cytotoxic Activity of Compounds Isolated from Flourensia oolepis” (Evidence-based Complementary and Alternative Medicine : eCAM, 2015).

In test [1] the test system is CCRF-CEM cells. Kind of test: Cell cycle distribution by flow cytometry (PI). Format: cell-based, human. To be noted: 2 × IC50, 72 h. Here is the method: Control cells were devoid of 1 and negative controls contained 1% ethanol. After treatment, cells were harvested and washed twice with ice cold PBS. Then, cells were fixed with 70% cold ethanol and kept at 4°C for 24 h. Before analysis, the cells were washed twice with PBS and stained with a solution containing propidium iodide (PI, 50 μg/mL, Sigma-Aldrich CO, USA) and RNase A (100 μg/mL, Sigma-Aldrich CO, USA) in PBS (pH 7.4) for 30 min in the dark. DNA content was evaluated by flow cytometry. The relative distribution of at least 20,000 cells was analyzed using FlowJo software version 7.6.2 (Tree Star, Inc. OR, USA).
A general note: Flow cytometry measures light scatter and fluorescence of single cells or particles in a stream.

The test system of test [2] is HEK293T non-tumor derived cell line. Kind of test: MTT cell proliferation assay. The class given is cell-based. The note with it: Homo sapiens, HEK-293T. An excerpt:
(§1) CCRF-CEM acute lymphoblastic leukemia (ALL) and K562 chronic myeloid leukemia (CML) cells and their MDR P-glycoprotein overexpressing variants, CEM/ADR5000 and Lucena 1, respectively, were a generous gift from Dr. T. Efferth (Institute of Pharmacy and Biochemistry, Johannes Gutenberg University, Mainz, Germany) and Dr. V. Rumjanek (Instituto de Bioquímica Médica Leopoldo de Meis, Universidade Federal do Rio de Janeiro, Rio de Janeiro, Brazil), respectively. The HEK293T non-tumor derived cell line and human isolated mononuclear cells (PBMC) were also tested. […]
(§2) To investigate the cytotoxic potential of the isolated compounds, the MTT colorimetric assay was performed. […] The compounds were evaluated at a final maximum concentration of 100 μM. […] Absorbance was measured with an iMark micro-plate reader (Bio-Rad, USA) at 595 nm. […] The percentage of cytotoxic activity of the assayed compounds was determined by the following formula: cytotoxicity (%) = [1 − (optical density of treated cells − optical density DMSO)/(optical density of ethanol control cells − optical density DMSO)] × 100.
In general terms: Tetrazolium dyes change colour on reduction, which living cells bring about.

Test [3] relates to peripheral blood mononuclear cells (PBMC). Kind of test: MTT cell proliferation assay. Format: cell-based. The note with it: Homo sapiens.
Description: as §1, §2

Another test concerns K562 cells. Kind of test: Viable cell count by trypan blue dye exclusion. Format: cell-based, human. As to the method: (§3) To confirm the effect of compound 1 on the proliferation of CCRF-CEM and K562, cell suspensions (5 × 10^4 cells/well) were treated in culture medium with different concentrations of 1 (final volume of 200 μL) and incubated in triplicate for 24, 48, and 72 h. Two independent experiments were performed. The number of viable cells at the different time points was counted by the trypan blue dye exclusion method using a hemocytometer (Neubaur, USA).

The subject of test [4] is CCRF-CEM cells. Kind of test: Viable cell count by trypan blue dye exclusion. The class given is cell-based, human. As to the method:
as §3

In test [5] the test system is Lucena 1 cells (MDR, P-glycoprotein overexpressing). Kind of test: cells. The note with it: for pIC50: Lucena 1, MTT, 72 h, read-out: IC50 values and 95% confidence limits (lower, upper). The class given is cell-based, human. Here is the method: (§4) The HEK293T non-tumor derived cell line and human isolated mononuclear cells (PBMC) were also tested. […] Cells were cultured at 37°C in a 5% CO2 humidified environment.
(§5) The latter concentration was then used for maintenance of the cells. Lucena 1 were continuously cultured in the presence of 60 nM DOX. Both cell lines were grown in drug-free medium 3-4 days before the experiments. Overexpression of P-glycoprotein (P-gp) in both MDR variants was verified by flow cytometry using FITC-labeled mouse anti-human P-gp (BD Pharmingen, USA). Cells were subcultured twice a week from frozen stocks and used before the 20th passage. All experiments were performed with cells in the logarithmic growth phase with cell viabilities over 90%, determined by trypan blue staining.
(§6) To investigate the cytotoxic potential of the isolated compounds, the MTT colorimetric assay was performed. […] The compounds were evaluated at a final maximum concentration of 100 μM. After 72 hours, 20 μL of 5 mg/mL solution of MTT in sterile PBS was added to each well and further incubated for 4 h. Then, the supernatants were removed and replaced with 100 μL DMSO to solubilize the resulting purple formazan crystals produced from metabolically viable cells. Absorbance was measured with an iMark micro-plate reader (Bio-Rad, USA) at 595 nm. Two wells were used for each concentration of the products assayed and three independent experiments were performed. […] The percentage of cytotoxic activity of the assayed compounds was determined by the following formula: cytotoxicity (%) = [1 − (optical density of treated cells − optical density DMSO)/(optical density of ethanol control cells − optical density DMSO)] × 100.
(§7) Data were analyzed by one-way analysis of variance (ANOVA) and means were compared using Bonferroni's comparison test, with p ≤ 0.05 considered as statistically significant.

Test [6] concerns CEM/ADR5000 cells (MDR, P-glycoprotein overexpressing). Kind of test: cells. Format: cell-based, human. To be noted: for pIC50: CEM/ADR5000, MTT, 72 h, read-out: IC50 values and 95% confidence limits (lower, upper). As to the method:
as §4, §5, §6, §7

For test [7], the system named is sensitive and resistant leukemic cells. Kind of test: MTT assay, summary over leukemic cell lines. The class given is cell-based. The note with it: Homo sapiens, read-out: IC50 values, range.
Description: as §1, §2

Structures are written as SMILES. pIC50: −log10 of the molar value. Where two headings read alike, the source gives them in different places. Some results are limits rather than exact numbers.

The term pIC50 denotes the negative decadic logarithm of the IC50, by convention in mol/L. As for `O=C(/C=C/c1ccccc1)c1ccc(O)cc1O` [Compound 1, 2′,4′-dihydroxychalcone], the “hypodiploid sub-G1 population” value in the test on CCRF-CEM cells [1] (ethanol control 1%) is recorded as 10%. Besides, in the test on CCRF-CEM cells [1] (ethanol control 7%), the “cells in the G2/M phase” value is on record as 34%. In addition, the pIC50 was 4.17 in test [2]; 4.08 in test [3]; more than 4.52 in test [5] (Homo sapiens, Lucena 1, 72 h); 4.52 in test [5]; 5.00 in test [6]; more than 5.00 in test [6] (Homo sapiens, ADR5000, 72 h). For the same compound, the pIC50 in test [7] was 4.52 to 5.18. Moreover, the “time at which a significant decrease (p < 0.05) in number of viable cells vs ethanol control was observed” value in the test with K562 cells (20.8 μM) is 48 h; with K562 cells (41.6 μM) it was 24 h. Besides, the results for the “time at which a significant difference (p < 0.05) in number of viable cells vs ethanol control was observed” value in the test with CCRF-CEM cells [4] (2.6 μM) and in the test with CCRF-CEM cells [4] (5.2 μM) were 72 h and 48 h, respectively. Also, the results for the “resistant index (RI) = IC50 resistant cells/IC50 sensitive cells” value in test [5] (Lucena 1 vs K562) and in test [6] (CEM/ADR5000 vs CCRF-CEM) were 1.1 and 1.5, respectively. Also, the results for the “selectivity index (IC50 ratio)” value in test [6] (IC50 HEK293T / IC50 CEM/ADR5000) and in test [6] (IC50 PBMC / IC50 CEM/ADR5000) were 6.8 and 8.4, respectively.
